Results reported in paper PMC4663167 (Insect biochemistry and molecular biology, 2015).
pEC50: −log10 of the molar value.

These compounds were tested against PhumOR2 (odorant receptor) (Pediculus humanus, UniProt A0ACM8QMA3).
Format: cell-based
In the case of `Cc1cccc(O)c1C` [2,3-dimethylphenol], the pEC50 was 3.99.
Work on `CC(O)c1ccccc1` (stereo not drawn) [1-phenylethanol] yielded a pEC50 of 2.89.
Compound `CC1CCC(O)CC1` (stereo not drawn) [4-methylcyclohexanol] has a pEC50 of 3.92.
